According to ChEMBL document CHEMBL1127215, “()-7-deazaaristeromycin lacking the hydroxymethyl substituent” (Bioorg Med Chem Lett, 1993):
In brackets after ≈: the same amount, converted by molar mass.

Columns and labels:
Adenosylhomocysteinase = Adenosylhomocysteinase (Homo sapiens, UniProt P23526); experiment: Tested for inhibitory concentration against S-adenosyl-homocysteine hydrolase
E6SM [1] = experiment: Tested for antiviral activity against HSV-1 (KOS) in E6SM cells; format: functional; conditions: Homo sapiens
E6SM [2] = experiment: Tested for antiviral activity against HSV-2 (G) in E6SM cells; format: functional; conditions: Homo sapiens
E6SM [3] = experiment: Tested for antiviral activity against TK-HSV-1 (B2006) in E6SM cells; format: functional; conditions: Homo sapiens
E6SM [4] = experiment: Tested for toxicity against morphology of E6SM cells; format: functional; conditions: Homo sapiens
HeLa [5] = experiment: Tested for antiviral activity against respiratory syncytial (long) in HeLa cells; format: functional; conditions: Homo sapiens
HeLa [6] = experiment: Tested for toxicity against morphology of HeLa cells; format: functional; conditions: Homo sapiens
HeLa [7] = experiment: Tested for antiviral activity against coxsackie B4 in HeLa cells; format: functional; conditions: Homo sapiens
HEL [8] = experiment: Tested for anti-HCMV activity using AD-169 and Davis strains in HEL cells; format: functional; conditions: Homo sapiens
HEL [9] = experiment: Tested for effect on HEL cells growth viability for anti-HCMV activity; format: functional; conditions: Homo sapiens
MDCK = experiment: Tested for toxicity against morphology of MDCK cells; format: functional; conditions: Canis lupus familiaris
MT4 [10] = experiment: Tested for antiviral activity against HIV-1 (IIIB/LAI) in MT-4 cells; format: functional; conditions: Homo sapiens
MT4 [11] = experiment: Tested for antiviral activity against HIV-2 (ROD) in MT-4 cells; format: functional; conditions: Homo sapiens
MT4 [12] = experiment: Tested for toxicity against growth/viability of MT-4 cells; format: functional; conditions: Homo sapiens
Vero [13] = experiment: Tested for toxicity against morphology of vero cells; format: functional; conditions: Chlorocebus sabaeus
Vero [14] = experiment: Tested for antiviral activity against Junin in vero cells; format: functional; conditions: Chlorocebus sabaeus
Vero [15] = experiment: Tested for antiviral activity against forest in vero cells; format: functional; conditions: Chlorocebus sabaeus
Vero [16] = experiment: Tested for antiviral activity against Sindbis in vero cells; format: functional; conditions: Chlorocebus sabaeus
Vero [17] = experiment: Tested for antiviral activity against Tacaribe in vero cells; format: functional; conditions: Chlorocebus sabaeus
Vero [18] = experiment: Tested for antiviral activity against coxsackie B4 in vero cells; format: functional; conditions: Chlorocebus sabaeus
Vero [19] = experiment: Tested for antiviral activity against parainfluenza 3 (VR-93) in vero cells; format: functional; conditions: Chlorocebus sabaeus
Vero [20] = experiment: Tested for antiviral activity against reo-1 in vero cells; format: functional; conditions: Chlorocebus sabaeus

Chain of Adenosylhomocysteinase (P23526 whole entry): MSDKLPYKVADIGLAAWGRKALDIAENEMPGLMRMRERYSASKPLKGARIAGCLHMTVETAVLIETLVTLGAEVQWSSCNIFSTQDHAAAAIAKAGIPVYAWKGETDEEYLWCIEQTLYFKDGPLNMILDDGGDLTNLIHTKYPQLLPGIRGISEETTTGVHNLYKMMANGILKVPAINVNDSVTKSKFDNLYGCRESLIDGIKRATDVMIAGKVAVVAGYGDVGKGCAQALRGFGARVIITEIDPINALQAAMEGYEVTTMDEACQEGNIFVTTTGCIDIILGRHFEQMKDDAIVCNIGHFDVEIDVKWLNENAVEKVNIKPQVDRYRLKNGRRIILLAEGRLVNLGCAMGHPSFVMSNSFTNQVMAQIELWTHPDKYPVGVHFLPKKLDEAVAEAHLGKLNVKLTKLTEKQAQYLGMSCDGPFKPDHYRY

Nc1ncnc2c1ncn2[C@@H]1C=C(CO)[C@@H](O)[C@H]1O [NEOPLANOCIN A]
IC50 (Adenosylhomocysteinase): 7.2 nM

Nc1ncnc2c1ncn2C[C@H](O)CO [(S)-DHPA]
IC50 (Adenosylhomocysteinase): 280 nM

Nc1ncnc2c1ccn2C1CCC(O)C1O (stereo not given)
MIC50 (E6SM [1]): > 200 µg/mL | MIC50 (E6SM [2]): > 200 µg/mL | MIC50 (E6SM [3]): > 200 µg/mL | MIC50 (E6SM [4]): > 200 µg/mL | MIC50 (HeLa [5]): > 100 µg/mL | MIC50 (HeLa [6]): > 200 µg/mL | MIC50 (HeLa [7]): > 200 µg/mL | MIC50 (HEL [8]): 18 µg/mL (≈ 76.8 µM) | MIC50 (HEL [9]): 130 µg/mL (≈ 555 µM) | MIC50 (MDCK): > 100 µg/mL | MIC50 (MT4 [10]): > 130 µg/mL | MIC50 (MT4 [11]): > 130 µg/mL | MIC50 (MT4 [12]): > 130 µg/mL | IC50 (Adenosylhomocysteinase): > 100000 nM | MIC50 (Vero [13]): > 200 µg/mL | MIC50 (Vero [14]): 84 µg/mL (≈ 359 µM) | MIC50 (Vero [15]): > 200 µg/mL | MIC50 (Vero [16]): > 200 µg/mL | MIC50 (Vero [17]): 64 µg/mL (≈ 273 µM) | MIC50 (Vero [18]): > 200 µg/mL | MIC50 (Vero [19]): 150 µg/mL (≈ 640 µM) | MIC50 (Vero [20]): > 200 µg/mL

Nc1ccnc2c1ncn2[C@@H]1C[C@H](CO)[C@@H](O)[C@H]1O
IC50 (Adenosylhomocysteinase): 18 nM
